Reference: ChEMBL document CHEMBL1201862, “PubChem BioAssay data set” (2004)
Active and inactive are the calls of the source.

Key:
[1] = A549 cell cytotoxicity, dose response, cytotoxicity control, plate reader, cherry-pick, antagonist series (AID 743412); assay type: functional, cell-based
[2] = LGR2 antagonists, dose response, cell-based, HEK293, CRE-luciferase reporter, cherry pick, set 2 (AID 743343); assay type: functional;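 also: transfected cells were stimulated with diluted bursicon conditioned medium after compound addition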
[3] = HepG2 cell cytotoxicity, dose response, cytotoxicity control, plate reader, cherry-pick, antagonist series (AID 743416); assay type: functional, cell-based
[4] = HEK293 cell cytotoxicity, dose response, cytotoxicity control, plate reader, cherry-picked samples (AID 743446); assay type: functional, cell-based
[5] = Luminescence-based counterscreen assay for KLF5 inhibitors: dose response cell-based high throughput screening assay to identify cytotoxic compounds using the IEC-6 intestinal epithelial cell line. [Related pubchem assays: 1700 (Primary screen.), 1834 (Confirmation screen.), 1858 (Summary AID.), 1905 (Counterscreen.)]; assay type: functional
Streptokinase A = biological target: T1, Streptokinase A (Streptococcus pyogenes serotype M1, UniProt P10520); assay: S. pyogenes streptokinase expression inhibitors, potency, dose response, plasminogen activation absorbance, OD405 (AID 1914); assay type: functional, Streptococcus pyogenes M1 GAS;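 also: secreted streptokinase activity via plasminogen activation per viability signal from cell pellet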
T1 sequence (P10520 whole entry): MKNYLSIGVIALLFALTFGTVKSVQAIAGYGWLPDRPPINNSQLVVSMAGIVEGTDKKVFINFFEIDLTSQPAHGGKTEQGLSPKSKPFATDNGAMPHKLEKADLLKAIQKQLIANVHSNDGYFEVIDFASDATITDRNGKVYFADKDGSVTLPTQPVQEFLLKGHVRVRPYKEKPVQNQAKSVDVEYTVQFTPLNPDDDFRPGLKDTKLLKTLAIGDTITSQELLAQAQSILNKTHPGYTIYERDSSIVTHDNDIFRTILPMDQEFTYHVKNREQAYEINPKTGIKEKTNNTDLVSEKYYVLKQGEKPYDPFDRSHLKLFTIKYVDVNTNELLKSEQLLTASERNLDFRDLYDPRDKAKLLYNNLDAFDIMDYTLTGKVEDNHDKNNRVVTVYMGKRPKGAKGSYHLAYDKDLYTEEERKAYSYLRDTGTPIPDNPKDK

[6] = tested on: Streptococcus sp. 'group A'; assay: growth inhibition of control SK(-) GAS strain, dose response, counter-screen for streptokinase expression inhibitor project, luminescence, kanamycin, BacTiterGlo, confirmation (AID 1900); assay type: functional, organism-based
Streptococcus = assay: Group A Streptococcus viability loss, dose response, counter-screen for streptokinase expression inhibitor project, luminescence, BacTiterGlo (AID 1915); assay type: functional, organism-based;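 also: potency for reduction of bacterial viability or growth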
[7] = MC4R antagonists, dose response, counter-screen for LGR2 antagonist project, cell-based, plate reader, cherry pick (AID 743444); assay type: functional;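 also: transfected HEK 293 cells stimulated with alpha-MSH peptide; potency of inhibitors of the alpha-MSH evoked signal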
Protein Tat = Protein Tat (Human immunodeficiency virus type 1 group M subtype B (isolate HXB2)(HIV-1), UniProt P04608); assay type: functional;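 also: tat binding to TAR RNA read out by fluorescence polarization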
Sequence of Protein Tat (P04608 whole entry, the tested form may be a part): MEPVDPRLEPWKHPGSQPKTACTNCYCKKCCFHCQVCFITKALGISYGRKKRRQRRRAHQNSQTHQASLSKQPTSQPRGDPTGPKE

[8] = inhibitors of clade B AD8 Env fusion, dose response, cell-based, cherry-pick (AID 652062); assay type: functional;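 also: luciferase signal from cell-cell fusion driven by HIV-1 clade B AD8 Env; potency is for inhibitors of fusion seen as a drop in luminescence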
[9] = CEM21 lymphoblast cell cytotoxicity, dose response, cytotoxicity control for viral fusion inhibitor project, CellTiter-Glo luminescence, cherry-picked (AID 652042); assay type: functional, cell-based;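 also: potency for signal decrease meaning cytotoxicity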
[10] = inhibitors of HIV Env-driven cell fusion, dose response, cherry-pick (AID 652057); assay type: functional, cell-based
[11] = ZM109 Env clade C HIV-1 fusion inhibitors, dose response, HeLa effector, CEM target cells, luciferase, cherry-pick (AID 652058); assay type: functional, cell-based
[12] = inhibitors of intracellular T. cruzi replication, confirmation, NIH3T3 host cells, beta-gal luminescence (AID 2044); assay type: functional, cell-based;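 also: intracellular parasites grown in NIH/3T3 mouse fibroblasts as host cells; luminescent beta-galactosidase reporter signal from transgenic T. cruzi replicating inside host cells; inhibitors lower the luminescence signal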
[13] = microbe, parasite or virus in culture; assay type: functional; conditions: Mycobacterium tuberculosis
[14] = cytotoxicity toward NIH3T3 fibroblasts, dose response, counter-screen, cell-based, ATP luminescence, mouse fibroblasts (AID 2010); assay type: functional;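 also: cells exposed to compound for about 90 hours before reading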
INS1 = assay: beta cell apoptosis inhibitors, cytokine rescue, dose response, luminescence, retest (AID 449756); assay type: functional, cell-based; conditions: Rattus norvegicus;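 also: cell death triggered by IL-1 beta plus TNF-alpha plus IFN-gamma mixture; protective hits raise ATP signal compared with cytokine alone wells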
cells [15] = assay: cells
[16] = biological target: T2, Nuclear receptor subfamily 0 group B member 1 (Homo sapiens, UniProt P51843); assay type: functional, cell-based;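 also: HEK293T cells transfected with SF-1 and DAX-1 plus StAR promoter luciferase reporter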
T2 sequence (P51843 whole entry): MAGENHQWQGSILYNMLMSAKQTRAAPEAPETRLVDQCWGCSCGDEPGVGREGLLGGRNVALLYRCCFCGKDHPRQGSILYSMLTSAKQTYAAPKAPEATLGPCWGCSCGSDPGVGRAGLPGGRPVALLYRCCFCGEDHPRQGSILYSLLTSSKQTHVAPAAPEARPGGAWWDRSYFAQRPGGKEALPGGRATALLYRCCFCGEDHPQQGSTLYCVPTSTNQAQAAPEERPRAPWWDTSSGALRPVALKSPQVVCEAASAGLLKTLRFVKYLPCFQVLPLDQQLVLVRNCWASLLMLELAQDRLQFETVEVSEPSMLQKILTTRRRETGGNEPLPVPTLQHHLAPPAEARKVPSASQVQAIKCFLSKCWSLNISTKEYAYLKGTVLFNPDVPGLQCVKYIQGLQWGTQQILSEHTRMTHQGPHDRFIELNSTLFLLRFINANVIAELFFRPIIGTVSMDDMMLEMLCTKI

cells [17] = assay type: functional, cell-based
[18] = biological target: COUP transcription factor 2 (Homo sapiens, UniProt P24468); assay: Luminescence-based cell-based high throughput dose response assay to identify inhibitors of COUP-TFII (NR2F2).; assay type: functional;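 also: HEK293 cells transiently cotransfected with COUP-TFII expression vector and reporter; luciferase reporter luminescence driven by COUP-TFII from the pX2-168 reporter plasmid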
Sequence of COUP transcription factor 2 (P24468 whole entry): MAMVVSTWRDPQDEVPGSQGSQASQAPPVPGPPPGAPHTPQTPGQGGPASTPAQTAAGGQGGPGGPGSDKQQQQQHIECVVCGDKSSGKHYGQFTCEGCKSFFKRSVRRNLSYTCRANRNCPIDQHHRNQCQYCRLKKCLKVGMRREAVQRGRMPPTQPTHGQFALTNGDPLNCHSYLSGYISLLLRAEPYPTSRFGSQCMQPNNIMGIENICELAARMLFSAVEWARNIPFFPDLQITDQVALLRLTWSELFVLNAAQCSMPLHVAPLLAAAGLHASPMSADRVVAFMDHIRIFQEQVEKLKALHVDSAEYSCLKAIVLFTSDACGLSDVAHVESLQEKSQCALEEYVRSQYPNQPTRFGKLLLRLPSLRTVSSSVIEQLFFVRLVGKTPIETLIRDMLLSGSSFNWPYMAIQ

[19] = biological target: Sphingosine 1-phosphate receptor 2 (Homo sapiens, UniProt O95136); assay: Dose Response Cell Based Assay for Antagonists of the S1P2 Receptor. [Related pubchem assays: 856, 736 ]; assay type: functional
Sequence of Sphingosine 1-phosphate receptor 2 (O95136 whole entry): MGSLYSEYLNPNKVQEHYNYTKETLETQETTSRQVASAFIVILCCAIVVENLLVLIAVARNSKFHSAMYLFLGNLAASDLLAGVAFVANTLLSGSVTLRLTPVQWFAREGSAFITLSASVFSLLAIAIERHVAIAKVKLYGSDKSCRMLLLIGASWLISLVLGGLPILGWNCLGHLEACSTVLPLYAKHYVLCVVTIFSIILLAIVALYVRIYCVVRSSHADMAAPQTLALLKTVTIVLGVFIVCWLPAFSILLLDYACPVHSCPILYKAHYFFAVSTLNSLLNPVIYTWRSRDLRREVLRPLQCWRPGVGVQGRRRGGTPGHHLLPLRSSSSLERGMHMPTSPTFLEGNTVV

[20] = NIH-3T3 fibroblast cytotoxicity, dose response, cytotoxicity control, cell-based, fluorescence, Alamar Blue, secondary assay (AID 2327); assay type: functional;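 also: NIH-3T3 mouse fibroblasts cultured with fluconazole at 8 µg/mL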
[21] = nonselective inhibitors of cellular cAMP signaling, dose response, counter-screen for MC4R biased antagonist project, cell-based, TR-FRET cAMP detection (AID 602305); assay type: functional;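 also: U2OS cells stimulated with forskolin near its EC80 as the cAMP inducer; potency is for inhibition of forskolin-stimulated cAMP signaling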
Nonstructural protein 1 = Nonstructural protein 1 (Influenza A virus, UniProt Q194T2); assay type: functional, Influenza A virus (A/California/07/2009(H1N1))
Sequence of Nonstructural protein 1 (Q194T2 whole entry): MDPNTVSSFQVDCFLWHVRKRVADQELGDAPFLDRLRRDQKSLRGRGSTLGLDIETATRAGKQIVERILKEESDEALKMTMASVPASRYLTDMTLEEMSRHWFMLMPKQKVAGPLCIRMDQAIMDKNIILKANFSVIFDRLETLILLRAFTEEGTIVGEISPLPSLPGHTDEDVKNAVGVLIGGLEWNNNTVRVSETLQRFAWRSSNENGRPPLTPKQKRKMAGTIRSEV

[22] = biological target: Protein-tyrosine kinase 2-beta (Homo sapiens, UniProt Q14289);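 also: potency of inhibitors of PYK2 kinase phosphorylation of poly-GT substrate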
Sequence of Protein-tyrosine kinase 2-beta (Q14289 whole entry): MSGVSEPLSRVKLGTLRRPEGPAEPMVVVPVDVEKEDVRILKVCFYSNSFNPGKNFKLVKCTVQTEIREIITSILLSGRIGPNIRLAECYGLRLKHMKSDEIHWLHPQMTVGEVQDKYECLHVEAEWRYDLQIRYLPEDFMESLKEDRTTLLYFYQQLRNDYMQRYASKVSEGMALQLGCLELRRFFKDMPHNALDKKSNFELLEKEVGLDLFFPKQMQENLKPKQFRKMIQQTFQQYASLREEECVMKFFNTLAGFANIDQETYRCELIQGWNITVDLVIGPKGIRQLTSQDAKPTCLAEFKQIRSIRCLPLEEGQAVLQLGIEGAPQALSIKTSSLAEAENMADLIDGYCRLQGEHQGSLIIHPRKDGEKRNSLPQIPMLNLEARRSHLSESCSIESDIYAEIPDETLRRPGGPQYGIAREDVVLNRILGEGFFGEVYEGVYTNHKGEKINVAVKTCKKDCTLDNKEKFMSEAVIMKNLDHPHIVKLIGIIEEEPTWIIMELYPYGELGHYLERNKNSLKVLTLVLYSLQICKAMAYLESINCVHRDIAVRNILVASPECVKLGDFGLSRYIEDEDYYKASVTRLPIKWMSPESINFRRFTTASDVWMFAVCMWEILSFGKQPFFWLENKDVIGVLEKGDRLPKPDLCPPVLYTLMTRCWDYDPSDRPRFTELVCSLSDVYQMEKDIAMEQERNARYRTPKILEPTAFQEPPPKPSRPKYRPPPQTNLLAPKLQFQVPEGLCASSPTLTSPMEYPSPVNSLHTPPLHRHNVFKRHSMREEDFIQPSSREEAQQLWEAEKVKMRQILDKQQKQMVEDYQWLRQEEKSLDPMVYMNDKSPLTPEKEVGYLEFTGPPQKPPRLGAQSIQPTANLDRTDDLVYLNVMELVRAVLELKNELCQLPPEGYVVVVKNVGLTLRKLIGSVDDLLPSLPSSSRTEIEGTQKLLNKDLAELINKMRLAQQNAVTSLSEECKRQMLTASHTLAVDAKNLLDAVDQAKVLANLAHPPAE

Melanocortin receptor 4 = Melanocortin receptor 4 (Homo sapiens, UniProt P32245); assay: MC4R antagonist potency on cAMP, dose response, cell-based, TR-FRET, biased antagonists (AID 602298); assay type: functional;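 also: antagonist potency against agonist-stimulated cAMP production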
Sequence of Melanocortin receptor 4 (P32245 whole entry): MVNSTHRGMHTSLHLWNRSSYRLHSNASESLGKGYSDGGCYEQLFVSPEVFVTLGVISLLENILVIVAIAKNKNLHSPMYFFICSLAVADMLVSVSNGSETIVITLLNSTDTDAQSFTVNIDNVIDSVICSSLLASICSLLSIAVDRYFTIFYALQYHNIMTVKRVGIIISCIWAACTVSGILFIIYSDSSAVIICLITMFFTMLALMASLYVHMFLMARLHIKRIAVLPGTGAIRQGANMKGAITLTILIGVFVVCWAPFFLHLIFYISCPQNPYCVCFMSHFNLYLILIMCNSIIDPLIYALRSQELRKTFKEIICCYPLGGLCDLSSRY

[23] = C. albicans growth with fluconazole, confirmation, fluorescence, retest (AID 2467); assay type: functional, cell-based
[24] = cytotoxicity in A549 cells, dose response, cytotoxicity control, cell-based, CellTiter-Glo luminescence, cherry-pick (AID 743484); assay type: functional
[25] = HEK293T cell cytotoxicity, dose response, cytotoxicity control, CellTiter-Glo luminescence, cherry-picked samples, set 4 (AID 743441); assay type: functional, cell-based; conditions: HEK293
[26] = cytotoxicity in KRAS-transformed pancreatic duct cells, primary screen, cell-based, fluorescence, HTS (AID 431); assay type: functional; conditions: Homo sapiens;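 also: cell line used: HPDE-C7K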
[27] = cytotoxicity in HPDE-C7 cells, cell-based, fluorescence, HTS (AID 430); assay type: functional; conditions: Homo sapiens

In the case of `CC(C)Oc1ccc(C(=O)Nc2nc3ccccc3[nH]2)cc1`, the AC50 [1] is reported as 18.8 µM (active), the AC50 [2] is reported as 1.2 µM (active) and the AC50 [3] is reported as 15.1 µM (active). For the same compound, the AC50 [4] was 16.2 µM (active), the IC50 [5] was 17.8 µM (not active) and the EC50 (Streptokinase A) was > 150 µM (not active). The EC50 [6] was 3.4 µM (active), the EC50 (Streptococcus) was 28.6 µM (active) and the AC50 [7] was 2.16 µM (active).

For `COc1ccc(OC)c(N/C(C)=C/C(=O)c2ccc(C)o2)c1`, the IC50 (Protein Tat) was > 100 µM (inconclusive).

In the case of `COc1ccc(C(=O)Nc2nc(-c3ccc(S(=O)(=O)N4CCOCC4)cc3)cs2)cc1`, the AC50 [8] is reported as 7.62 µM (active), the AC50 [9] is reported as 40.3 µM (active) and the AC50 [10] is reported as 63.4 µM (active). For the same compound, the AC50 [11] was 0.664 µM (active).

For `COc1ccc(-c2cc3ccccc3oc2=O)cc1NC(=O)c1ccc([N+](=O)[O-])o1`, the EC50 [12] was < 0.1 µM (active), the CC50 [13] was > 40 µM (active) and the EC50 [14] was 9.47 µM (active). For the same compound, the AC50 (INS1) was 10.7 µM (active) and the EC50 (cells [15]) was 0.262 µM (active).

With `O=C(Nc1ccc(SC(F)(F)F)cc1)c1ccccn1` the IC50 [16] was > 0.834 µM (active) and the IC50 (cells [17]) was > 67.5 µM (inactive).

In the case of `CCNc1nc(-c2sc(NC(=O)C(C)(C)C)nc2C)c(-n2cc(-c3ccccc3)nn2)s1`, the IC50 [18] is reported as 10.7 µM (inactive).

With `COC(=O)c1sc2cc(C(F)(F)F)cnc2c1-c1ccccn1` the IC50 [19] was > 30 µM (not active).

For `CCOC(=O)c1cnc2ccc(C)cc2c1Nc1ccc(N2CCOCC2)cc1`, the EC50 [20] was 41.5 µM (active), the IC50 [21] was > 64.6 µM (inactive) and the IC50 (Nonstructural protein 1) was 30.7 µM (active). The IC50 [22] was 47.7 µM (not active), the IC50 (Melanocortin receptor 4) was 19 µM (inactive) and the EC50 [23] was 1.75 µM (active).

For `COc1cc2c(cc1[N+](=O)[O-])-c1ccc([N+](=O)[O-])cc1C2`, the AC50 [24] was 12.4 µM (active) and the AC50 [25] was 26.7 µM (active).

With `Cc1ccc2nc(C(F)(F)F)c(C#N)c(N)c2c1` the AC50 [1] was 24.2 µM (active), the AC50 [2] was 22.9 µM (active) and the AC50 [3] was 16 µM (active). The AC50 [4] was > 52 µM (inactive), the EC50 [26] was 7.2 µM (active) and the EC50 [27] was > 20 µM (not active).
